Data from PMC10671693, “Design, Synthesis, and Antitumor Activity Evaluation of Proteolysis-Targeting Chimeras as Degraders of Extracellular Signal-Regulated Kinases 1/2” (International Journal of Molecular Sciences, 2023).
“Also recorded” adds a separate entry of the source.

Assays:
A375 cells = experiment: Cell proliferation (CCK8) assay, A375; format: cell-based; details: Homo sapiens, A-375, A375, 72 h, read-out: IC50 (growth inhibition, cytotoxicity)
Description: (§1) A375, HCT116, Calu-6, and B16-F10 cells were purchased from American Type Culture Collection (ATCC) and cultured in DMEM high glucose media (SH30022.01, Cytiva, Shanghai, China) supplemented with 10% fetal bovine serum (10099-144, Gibco, Carlsbad, CA, USA) and 1% penicillin/streptomycin (Solarbio, Beijing, China) in an incubator at 37 °C with 5% CO2.
(§2) A 96-well plate (3599, Corning, New York, NY, USA) was inoculated with 100 μL of complete medium containing 10,000 cells, and the experimental, control, and blank groups were established. Three parallel wells were used per concentration. After 10 h, the media from the experimental and control groups were replaced with a compound containing the indicated concentration of the complete medium. Cells were incubated for 72 h before 10 μL of CCK8 reagent (CA1210, Solarbio, Beijing, China) was added to each well and incubated for 1 h. Using a microplate reader (Tecan, Mannendorf, Switzerland), the absorbance at 450 nm was measured. The IC50 values were determined using GraphPad Prism 8 and nonlinear regression curve fitting.

HCT116 cells = experiment: Cell proliferation (CCK8) assay, HCT116; format: cell-based, human; details: Homo sapiens, HCT-116, 72 h, HCT116, 72 h, read-out: IC50 (growth inhibition, cytotoxicity)
Description: as §1, §2

Calu-6 cells = experiment: Cell proliferation (CCK8) assay, Calu-6; format: cell-based; details: Homo sapiens, Calu-6, 72 h, read-out: IC50 (growth inhibition, cytotoxicity)
Description: as §1, §2

HCT116 tumor = experiment: HCT116 subcutaneous xenograft model in nude mice; format: in vivo; details: mouse, in vivo
Description: Male BALB/c nude mice of around 8 weeks old were purchased from Charles River (Beijing, China). Nude mice were raised in SPF-grade animal rooms and had access to water and food ad libitum. HCT116 colorectal cancer cells were grown in DMEM supplemented with 10% fetal calf serum and 1% penicillin/streptomycin under standard cell culture conditions. HCT116 xenografts were prepared by subcutaneously injecting 5× 10^6 cells suspended in PBS into the right flank of each male BALB/c nude mouse. Tumor growth was monitored via caliper measurement, and volume was calculated using the following equation: 0.5 × max (length/width) × min (length/width) × min (length/width). When the tumors reached an average of approximately 100 mm^3, the mice were randomized into groups of five. The mice were injected intraperitoneally once a day at doses of 6, 12, 25 mg/kg compound B1-10J and 25 mg/kg 5-FU. Body weights and tumor volumes were measured every 2–3 days. All studies were appropriately statistically powered.

ERK1/2 = experiment: Western blot ERK1/2 protein degradation assay in A375 cells; format: cell-based, human; details: 48 h; for ERK1/2 degradative activity (in words): Western blot; for DC50: Western blotting and grayscale quantification; for DCmax: Western blot with grayscale quantification
Description: as §1
Cells were cultured under the indicated conditions as described in “Cell culture”. Cells were seeded in 6-well plates (3516, Corning, New York, NY, USA). Compounds were dissolved in DMSO for storage (10 mM). Following compound treatment, cells were washed with PBS, scraped from the plate, and lysed using cell lysis buffer (Applygen, Beijing, China). After the protein in the cell lysate was quantified via the BCA quantification method, the samples were placed in a metal bath at 100 °C and heated for 5 min. Cell lysates were separated using a 10% SDS–PAGE gel and transferred to PVDF membranes (Merck Millipore, Burlington, MA, USA). The PVDF membrane was blocked with 5% nonfat dry milk in TBST for one hour. The PVDF membrane was transferred to the antibody diluent and incubated overnight at 4 °C. PVDF membranes were washed three times with TBST for 5 min each and then incubated with the appropriate HRP-conjugated secondary antibody for 1 h at room temperature. After washing three more times with TBST, the PVDF membrane was stained with a hypersensitive ECL chemiluminescence reagent (Biodragon, Beijing, China) and then imaged with Tanon 5200. Grayscale quantitative analysis was performed using ImageJ software. Statistical analysis was performed using GraphPad Prism 8. DC50 and Dmax values were fitted using a four-parameter [inhibitor] versus response and reported directly from the Prism output. Mean ± SD and unpaired t tests were performed in GraphPad Prism.

melting point	DC50 (ERK1/2)	Compound	IC50 (A375 cells)	IC50 (HCT116 cells)	IC50 (Calu-6 cells)	body weight / tolerability (HCT116 tumor)	ERK1/2 degradative activity (in words) (ERK1/2)	DCmax (ERK1/2)
110 to 111 °C	–	Cc1cccc(CN2C(=O)c3cc(-c4nc(Nc5ccnc(NCCCNC(=O)CCCCCCCCCNc6cccc7c6C(=O)N(C6CCC(=O)NC6=O)C7=O)c5)ncc4C)cn3C[C@H]2C)n1 (stereo partly shown) [Compound B1-10N]	–	–	–	–	degradative activity disappeared	–
–	0.616 ± 0.389 µM	Cc1cccc(CN2C(=O)c3cc(-c4nc(Nc5ccnc(C#CCCN6CCN(CCCCCCCCNc7cccc8c7C(=O)N(C7CCC(=O)NC7=O)C8=O)CC6)c5)ncc4C)cn3C[C@H]2C)n1 (stereo partly shown) [Compound B1-10P]	> 30 µM	2.2 ± 0.6 µM	> 30 µM	–	slightly increased DC50; also recorded: effective ERK1/2 degraders	–
–	0.333 ± 0.169 µM	Cc1cccc(CN2C(=O)c3cc(-c4nc(Nc5ccnc(C#CCCNC(=O)CCCCCCCCCNc6cccc7c6C(=O)N(C6CCC(=O)NC6=O)C7=O)c5)ncc4C)cn3C[C@H]2C)n1 (stereo partly shown) [Compound B1-10]	> 30 µM	> 30 µM	> 30 µM	–	effective ERK1/2 degraders	exceeding 65%
144 to 145 °C	0.699 ± 0.361 µM	Cc1cccc(CN2C(=O)c3cc(-c4nc(Nc5ccnc(C#CCCNC(=O)CCCCCCCCC(=O)N[C@H](C(=O)N6C[C@H](O)C[C@H]6C(=O)N[C@@H](C)c6ccc(-c7scnc7C)cc6)C(C)(C)C)c5)ncc4C)cn3C[C@H]2C)n1 [Compound B2-10]	–	–	–	–	effective ERK1/2 degraders	–
145 to 146 °C	3.8 ± 1.82 µM	Cc1cccc(CN2C(=O)c3cc(-c4nc(Nc5ccnc(C#CCCN6CCN(CCCCCCCCCC(=O)N[C@H](C(=O)N7C[C@H](O)C[C@H]7C(=O)N[C@@H](C)c7ccc(-c8scnc8C)cc7)C(C)(C)C)CC6)c5)ncc4C)cn3C[C@H]2C)n1 [Compound B2-12P]	–	–	–	–	significantly increased DC50 value	–
143 to 144 °C	0.383 ± 0.208 µM	Cc1cccc(CN2C(=O)c3cc(-c4nc(Nc5ccnc(C#CCCNC(=O)CCCCCCCCCCC(=O)N[C@H](C(=O)N6C[C@H](O)C[C@H]6C(=O)N[C@@H](C)c6ccc(-c7scnc7C)cc6)C(C)(C)C)c5)ncc4C)cn3C[C@H]2C)n1 [Compound B2-12]	7.5 ± 6.1 µM	11.7 ± 10.5 µM	> 30 µM	–	effective ERK1/2 degraders	exceeding 65%

Continued, compound first:

Compound	melting point	DC50 (ERK1/2)	IC50 (A375 cells)	IC50 (HCT116 cells)	IC50 (Calu-6 cells)	body weight / tolerability (HCT116 tumor)	ERK1/2 degradative activity (in words) (ERK1/2)	DCmax (ERK1/2)
CNCCC#Cc1cc(Nc2ncc(C)c(-c3cc4n(c3)C[C@@H](C)N(Cc3cccc(C)n3)C4=O)n2)ccn1 [B-J]	–	–	16.8 ± 3 µM	17.8 ± 3.9 µM	6.5 ± 1.3 µM	–	–	–
O=c1[nH]cc(F)c(=O)[nH]1 [Compound 5-FU, 5-fluorouracil, reference compound]	–	–	–	–	–	trend of weight loss	–	–
Cc1cccc(CN2C(=O)c3cc(-c4nc(Nc5ccn(CCCCNC(=O)CCCCCCCCCNc6cccc7c6C(=O)N(C6CCC(=O)NC6=O)C7=O)n5)ncc4C)cn3C[C@H]2C)n1 (stereo partly shown) [Compound B1-10BZ]	–	–	–	–	–	–	degradative activity disappeared; also recorded: no degradative activity was observed	–
Cc1cccc(CN2C(=O)c3cc(-c4nc(Nc5cccc(C#CCCNC(=O)CCCCCCCCCNc6cccc7c6C(=O)N(C6CCC(=O)NC6=O)C7=O)c5)ncc4C)cn3C[C@H]2C)n1 (stereo partly shown) [Compound B1-10B]	–	–	–	–	–	–	no degradative activity was observed	–
Cc1cccc(CN2C(=O)c3cc(-c4nc(Nc5ccnc(C#CCCN(C)CCCCCCCCCCCC(=O)N[C@H](C(=O)N6C[C@H](O)C[C@H]6C(=O)N[C@@H](C)c6ccc(-c7scnc7C)cc6)C(C)(C)C)c5)ncc4C)cn3C[C@H]2C)n1 [Compound B2-12J]	–	–	–	–	–	–	lost its degradative activity	–
Cc1cccc(CN2C(=O)c3cc(-c4nc(Nc5ccnc(C#CCCNC(=O)CCCCCCCCCCCCC(=O)N[C@H](C(=O)N6C[C@H](O)C[C@H]6C(=O)N[C@@H](C)c6ccc(-c7scnc7C)cc6)C(C)(C)C)c5)ncc4C)cn3C[C@H]2C)n1 [Compound B2-14]	128 to 129 °C	0.307 ± 0.191 µM	–	–	–	–	effective ERK1/2 degraders	exceeding 65%
